pIC50: −log10 of the molar value.

As usually defined, the pIC50 is −log10 of the IC50, conventionally taken in molar units.

The target of this assay is T1, purified recombinantly expressed human SSAO (Homo sapiens, UniProt Q16853).
T1 construct: made in house
T1 sequence (Q16853 1-763): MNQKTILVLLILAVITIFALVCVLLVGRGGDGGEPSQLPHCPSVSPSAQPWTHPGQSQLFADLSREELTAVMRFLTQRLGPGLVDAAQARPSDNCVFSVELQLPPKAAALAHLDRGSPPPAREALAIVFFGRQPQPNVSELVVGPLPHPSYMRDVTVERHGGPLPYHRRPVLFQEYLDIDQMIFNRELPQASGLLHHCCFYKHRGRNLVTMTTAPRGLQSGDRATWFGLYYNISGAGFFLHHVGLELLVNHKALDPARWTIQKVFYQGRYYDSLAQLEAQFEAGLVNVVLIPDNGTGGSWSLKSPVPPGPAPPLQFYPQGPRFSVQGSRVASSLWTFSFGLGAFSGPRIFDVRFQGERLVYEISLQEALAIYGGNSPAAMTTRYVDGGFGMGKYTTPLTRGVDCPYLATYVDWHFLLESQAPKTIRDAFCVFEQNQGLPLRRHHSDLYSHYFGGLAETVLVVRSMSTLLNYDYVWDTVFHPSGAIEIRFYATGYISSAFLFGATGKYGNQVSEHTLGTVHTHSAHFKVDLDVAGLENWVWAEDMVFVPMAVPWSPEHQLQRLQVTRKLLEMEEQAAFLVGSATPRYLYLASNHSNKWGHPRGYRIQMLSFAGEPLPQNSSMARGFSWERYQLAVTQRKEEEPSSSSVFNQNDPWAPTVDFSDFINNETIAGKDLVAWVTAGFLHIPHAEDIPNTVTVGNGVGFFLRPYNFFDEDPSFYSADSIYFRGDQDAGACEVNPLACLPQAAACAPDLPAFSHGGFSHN
Briefly: SSAO enzyme inhibition assay (benzylamine substrate; hydrogen peroxide/HRP-coupled or 14C-aldehyde detection). The conditions noted are these: SSAO inhibitory activity; recombinant human SSAO, RT. The class given is biochemical. On the procedure:
All primary assays were performed at RT. with purified recombinantly expressed human SSAO. Enzyme was prepared essentially as described in Öhman et al. (Protein Expression and Purification 46 (2006) 321-331). In addition, secondary- and selectivity assays were performed using SSAO prepared from various tissues or purified rat recombinant SSAO. The enzyme activity was assayed with benzylamine as substrate by measuring either benzaldehyde production, using ^14C-labeled substrate, or by utilizing the production of hydrogen peroxide in a horseradish peroxidase (HRP) coupled reaction. Briefly, test compounds were dissolved in dimethyl sulfoxide (DMSO) to a concentration of 10 mM. Dose-response measurements were assayed by either creating 1:10 serial dilutions in DMSO to produce a 7 point curve or by making 1:3 serial dilutions in DMSO to produce 11 point curves. The top concentrations were adjusted depending on the potency of the compounds and subsequent dilution in reaction buffer yielded a final DMSO concentration ≤2%.
In a horseradish peroxidase (HRP) coupled reaction, hydrogen peroxide oxidation of 10-acetyl-3,7-dihydroxyphenoxazine produced resorufin, which is a highly fluorescent compound (Zhout and Panchuk-Voloshina. Analytical Biochemistry 253 (1997) 169-174; Amplex® Red Hydrogen Peroxide/peroxidase Assay kit, Invitrogen A22188). Enzyme and compounds in 50 mM sodium phosphate, pH 7.4 were set to pre-incubate in flat-bottomed microtiter plates for approximately 15 min before initiating the reaction by addition of a mixture of HRP, benzylamine and Amplex reagent. Benzylamine concentration was fixed at a concentration corresponding to the Michaelis constant, determined using standard procedures. Fluorescence intensity was then measured at several time points during 1-2 h, exciting at 544 nm and reading the emission at 590 nm. For the human SSAO assay final concentrations of the reagents in the assay wells were: SSAO enzyme 1 ug/mL, benzylamine 100 uM, Amplex reagent 20 uM, HRP 0.1 U/mL and varying concentrations of test compound. The inhibition was measured as % decrease of the signal compared to a control without inhibitor (only diluted DMSO). The background signal from a sample containing no SSAO enzyme was subtracted from all data points. Data was fitted to a four parameter logistic model and IC50 values were calculated using the GraphPad Prism 4 or XLfit 4 programs.
SSAO activity was assayed using […] benzylamine and analysed by measuring radioactive benzaldehyde. In a white 96-well optiplate (Packard), 20 uL of diluted test compound was pre-incubated at RT with 20 uL SSAO enzyme for approximately 15 min with continuous agitation. All dilutions were made with PBS. The reaction was initiated by adding 20 uL of the benzylamine substrate solution containing Benzylamine hydrochloride (CFA589, GE Healthcare). The plate was incubated for 1 h as above after which the reaction was stopped by acidification (10 uL 1M aq HCl). Then 90 uL Micro Scint-E solution (Perkin-Elmer) was added to each well and the plate was continuously mixed for 15 min. Phase separation occurred instantly and activity was read in a Topcount scintillation counter (Perkin-Elmer). In the final reaction well, the human recombinant SSAO concentration was 10 ug/mL. In order to optimize sensitivity, the substrate concentration was decreased as compared to the HRP coupled assay in order to get a higher fraction of radioactive product. In the human SSAO assay, benzylamine concentration was 40 uM (0.2uCi/mL). Data was analysed as above.
Take `CCN(CC)c1ncc(-c2nc3ccncc3n2-c2ccc(C)cc2)cn1` [Compound 6, N,N-Diethyl-5-[3-(4-methylphenyl)-3H-imidazo[4,5-c]pyridin-2-yl]pyrimidin-2-amine]: the pIC50 was > 7.30.

Turning to `Fc1ccc(-n2c(-c3ccc(N4CCSCC4)nc3)nc3ccncc32)cc1` [Compound 16, 4-{5-[3-(4-Fluorophenyl)-3H-imidazo[4,5-c]pyridin-2-yl]pyridin-2-yl}thiomorpholine], the negative logarithm of the IC50 (pIC50) is > 7.30. On to `Cc1ccc(-n2c(-c3ccc(N4CCC(F)(F)CC4)nc3)nc3ccncc32)cc1` [Compound 11, 2-(4,4-Difluoropiperidin-1-yl)-5-[3-(4-methylphenyl)-3H-imidazo[4,5-c]pyridin-2-yl]pyridine], for which the pIC50 is > 7.30. Under `Fc1ccc(-n2c(-c3cnc(NC4CCOCC4)nc3)nc3ccncc32)c(F)c1` [Compound 3, 5-[3-(2,4-Difluorophenyl)-3H-imidazo[4,5-c]pyridin-2-yl]-N-(oxan-4-yl)pyrimidin-2-amine] stands 6.70 to 7.30; under `CCN(CC)c1ncc(-c2nc3ccncc3n2-c2ccc(C)cn2)cn1` [Compound 7, N,N-Diethyl-5-[3-(5-methylpyridin-2-yl)-3H-imidazo[4,5-c]pyridin-2-yl]pyrimidin-2-amine], 6.70 to 7.30; under `Cc1ccc(-n2c(-c3ccc(N4CCOCC4)cc3)nc3ccncc32)cn1` [Compound 28, 4-{4-[3-(6-Methylpyridin-3-yl)-3H-imidazo[4,5-c]pyridin-2-yl]phenyl}morpholine], 6.70 to 7.30. To `Fc1ccc(-n2c(-c3ccc(Cl)nc3)nc3ccncc32)cc1` [Compound 39, 2-Chloro-5-[3-(4-fluorophenyl)-3H-imidazo[4,5-c]pyridin-2-yl]pyridine] belongs 5.92 to 6.70; to `Cc1ccc(-n2c(-c3ccc(NC4CC4)nc3)nc3ccncc32)cn1` [Compound 23, N-Cyclopropyl-5-[3-(6-methylpyridin-3-yl)-3H-imidazo[4,5-c]pyridin-2-yl]pyridin-2-amine], 5.92 to 6.70; to `Cc1ccc(-n2c(-c3cnc(N4CCCC4)nc3)nc3ccncc32)nc1` [Compound 26, 5-[3-(5-Methylpyridin-2-yl)-3H-imidazo[4,5-c]pyridin-2-yl]-2-(pyrrolidin-1-yl)pyrimidine], 6.70 to 7.30. For the compound `Fc1ccc(-n2c(-c3ccc(NC4CC4)nc3)nc3ccncc32)cc1` [Compound 22, N-Cyclopropyl-5-[3-(4-fluorophenyl)-3H-imidazo[4,5-c]pyridin-2-yl]pyridin-2-amine], the pIC50 is > 7.30. Take `Cc1ccc(-n2c(-c3cnc(N4CCCC4)nc3)nc3ccncc32)cc1` [Compound 29, 5-[3-(4-Methylphenyl)-3H-imidazo[4,5-c]pyridin-2-yl]-2-(pyrrolidin-1-yl)pyrimidine]: the pIC50 was > 7.30. Under `Cc1ccc(-n2c(-c3ccc(N4CCOCC4)cc3F)nc3ccncc32)cn1` [Compound 33, 4-{3-Fluoro-4-[3-(6-methylpyridin-3-yl)-3H-imidazo[4,5-c]pyridin-2-yl]phenyl}morpholine] stands 6.70 to 7.30; under `Cc1ccc(-n2c(-c3ccc(N4CCCC4)cc3)nc3ccncc32)nc1` [Compound 36, 5-Methyl-2-{2-[4-(pyrrolidin-1-yl)phenyl]-3H-imidazo[4,5-c]pyridin-3-yl}pyridine], 6.70 to 7.30. `Cc1ccc(-n2c(-c3ccc(N4CCC(F)CC4)cc3)nc3ccncc32)cn1` [Compound 37, 5-{2-[4-(4-Fluoropiperidin-1-yl)phenyl]-3H-imidazo[4,5-c]pyridin-3-yl}-2-methylpyridine]: the pIC50 was 6.70 to 7.30. To `Cc1ccc(-n2c(-c3ccc(N4CCCC4)cc3)nc3ccncc32)cn1` [Compound 31, 2-Methyl-5-{2-[4-(pyrrolidin-1-yl)phenyl]-3H-imidazo[4,5-c]pyridin-3-yl}pyridine] belongs > 7.30; to `CCN(CC)c1ncc(-c2nc3ccncc3n2-c2ccc(C)nc2)cn1` [Compound 4, N,N-Diethyl-5-[3-(6-methylpyridin-3-yl)-3H-imidazo[4,5-c]pyridin-2-yl]pyrimidin-2-amine], 6.70 to 7.30; to `Cc1ccc(-n2c(-c3ccc(N4CCCC4)c(F)c3)nc3ccncc32)cn1` [Compound 34, 5-{2-[3-Fluoro-4-(pyrrolidin-1-yl)phenyl]-3H-imidazo[4,5-c]pyridin-3-yl}-2-methylpyridine], 6.70 to 7.30. As for `Fc1ccc(-n2c(-c3ccc(NCCN4CCOCC4)nc3)nc3ccncc32)cc1` [Compound 20, 5-[3-(4-Fluorophenyl)-3H-imidazo[4,5-c]pyridin-2-yl]-N-[2-(morpholin-4-yl)ethyl]pyridin-2-amine], the pIC50 is > 7.30. To `Cc1ccc(-n2c(-c3ccc(N4CCCC4)cc3F)nc3ccncc32)cn1` [Compound 32, 5-{2-[2-Fluoro-4-(pyrrolidin-1-yl)phenyl]-3H-imidazo[4,5-c]pyridin-3-yl}-2-methylpyridine] belongs > 7.30; to `Cc1cc(N2CCOCC2)ncc1-c1nc2ccncc2n1-c1ccc(Cl)cc1` [Compound 9, 4-{5-[3-(4-Chlorophenyl)-3H-imidazo[4,5-c]pyridin-2-yl]-4-methylpyridin-2-yl}morpholine], > 7.30. To `Clc1ccc(-n2c(-c3ccc(Cl)nc3)nc3ccncc32)cc1` [Compound 38, 2-Chloro-5-[3-(4-chlorophenyl)-3H-imidazo[4,5-c]pyridin-2-yl]pyridine] belongs 5.92 to 6.70; to `Cc1ccc(-n2c(-c3cnc(N4CCCC4)nc3)nc3ccncc32)cn1` [Compound 25, 5-[3-(6-Methylpyridin-3-yl)-3H-imidazo[4,5-c]pyridin-2-yl]-2-(pyrrolidin-1-yl)pyrimidine], 6.70 to 7.30.

With `Cc1ccc(-n2c(-c3cnc(N4CCOCC4)cc3C)nc3ccncc32)c(F)c1` [Compound 8, 4-{5-[3-(2-Fluoro-4-methylphenyl)-3H-imidazo[4,5-c]pyridin-2-yl]-4-methylpyridin-2-yl}morpholine], the negative logarithm of the IC50 (pIC50) is > 7.30. To `Cc1ccc(-n2c(-c3ccc(NC(C)C)nc3)nc3ccncc32)cc1` [Compound 24, 5-[3-(4-Methylphenyl)-3H-imidazo[4,5-c]pyridin-2-yl]-N-(propan-2-yl)pyridin-2-amine] belongs > 7.30; to `CCN(CC)c1ncc(-c2nc3ccncc3n2-c2ccc(F)cc2)cn1` [Compound 5, N,N-Diethyl-5-[3-(4-fluorophenyl)-3H-imidazo[4,5-c]pyridin-2-yl]pyrimidin-2-amine], > 7.30; to `Cc1cc(N2CCOCC2)ncc1-c1nc2ccncc2n1-c1ccc(F)cn1` [Compound 14, 4-{5-[3-(5-Fluoropyridin-2-yl)-3H-imidazo[4,5-c]pyridin-2-yl]-4-methylpyridin-2-yl}morpholine; tris(trifluoroacetic acid)], 5.92 to 6.70.

For the origin of these results see patent publication US10065954B2, “Substituted imidazo[4,5-c]pyridines as SSAO inhibitors” (Proximagen Limited, priority 2014, dated 2018).
